Drawing on ChEMBL document CHEMBL4665893, “Scalable Synthesis, In Vitro cccDNA Reduction, and In Vivo Antihepatitis B Virus Activity of a Phosphonomethoxydeoxythreosyl Adenine Prodrug” (J Med Chem, 2020), this text covers Activity and EC50 for one molecule.

For data set [1], the system named is Hepatitis B virus. Put plainly: Antiviral activity against HBV infected hydrodynamic injection C57BL/6 mouse model assessed as reduction in serum HBV DNA level at 0.6 to 60 mg/kg, po QD for 6 days by qPCR analysis. The format is functional, organism-based. The note with it: dose mg/kg 0.6-60, time 6.0 day.
Data set [2] relates to Hepatitis B virus. Put plainly: Antiviral activity against adenovirus AdH294-WT harboring wild-type HBV genotype D accession #V01460 infected in human HepG2 cells assessed as reduction in viral replicative intermediate DNAs incubated for 5 days by Southern blot analysis. It counts as functional, organism-based. The note with it: genotype D accession #V01460, HepG2, 120 h.

The test system of data set [3] is Hepatitis B virus. Put plainly: Antiviral activity against ETV-resistant and adenovirus AdH294-7LR harboring wild-type HBV infected in human HepG2 cells assessed as viral replicative intermediate DNA level at 40 nM incubated for 5 days by Southern blot analysis (reference value: 100%). It counts as functional. The note with it: time 5 day.
The test system of data set [4] is Hepatitis B virus. As to the kind of experiment: Antiviral activity against adenovirus AdH294-WT harboring wild-type HBV genotype D accession #V01460 infected in human HepG2 cells assessed as reduction in viral replicative intermediate DNA level at 1100 nM incubated for 5 days by Southern blot analysis (reference value: 100%). The format is functional. Set-up: scale not given: the % may be the effect or the level left. The note with it: time 5 day.

Data set [5] in a line: Genotoxicity in Salmonella typhimurium TA100 assessed as increase in number of spontaneous revertants colonies by Ames test. The format is toxicity. The note with it: salmonella enterica subsp. enterica serovar typhimurium, 1 µM.
Data set [6] in a line: Genotoxicity in Salmonella typhimurium TA98 assessed as increase in number of spontaneous revertants colonies by Ames test. It counts as toxicity. The note with it: salmonella enterica subsp. enterica serovar typhimurium, 1 µM.
The subject of data set [7] is Hepatitis B virus. As to the kind of experiment: Antiviral activity against ETV-resistant and adenovirus AdH294-7LR harboring wild-type HBV infected in human HepG2 cells assessed as viral replicative intermediate DNA level at 4 nM incubated for 5 days by Southern blot analysis (reference value: 100%). It counts as functional. The note with it: time 5 day.
A short description of data set [8]: Genotoxicity in Salmonella typhimurium at 1 uM by Ames test. The format is toxicity. The note with it: salmonella enterica subsp. enterica serovar typhimurium.
The nature of data set [9]: Toxicity in C57BL/6 female mouse assessed as reduction in mean corpuscular volume level at 60 mg/kg, po for 14 days by hematology analysis. The format is organism-based. The note with it: in vivo, 336 h, time 14 day.
Data set [10] deals with Hepatitis B virus. Put plainly: Antiviral activity against adenovirus AdH294-WT harboring wild-type HBV genotype D accession #V01460 infected in human HepG2 cells assessed as reduction in viral replicative intermediate DNA level at 40 nM incubated for 5 days by Southern blot analysis (reference value: 100%). Set-up: scale not given: the % may be the effect or the level left. The format is functional. The note with it: time 5 day.

The nature of data set [11]: Toxicity in C57BL/6 female mouse assessed as reduction in erythrocytes level at 60 mg/kg, po for 14 days by hematology analysis. The note with it: in vivo, 336 h, time 14 day. The format is organism-based.
Data set [12] concerns Hepatitis B virus. Put plainly: Antiviral activity against ETV-resistant and adenovirus AdH294-7LR harboring wild-type HBV infected in human HepG2 cells assessed as viral replicative intermediate DNA level at 3300 nM incubated for 5 days by Southern blot analysis (reference value: 100%). The format is functional. The note with it: time 5 day.
The nature of data set [13]: Toxicity in C57BL/6 female mouse assessed as effect on organ weight level at 60 mg/kg, po for 14 days. The format is organism-based. The note with it: in vivo, 336 h, time 14 day.
Data set [14] relates to Hepatitis B virus. Put plainly: Antiviral activity against adenovirus AdH294-WT harboring wild-type HBV genotype D accession #V01460 infected in human HepG2 cells assessed as reduction in viral replicative intermediate DNA level at 13 nM incubated for 5 days by Southern blot analysis (reference value: 100%). The note with it: time 5 day. The format is functional. Set-up: scale not given: the % may be the effect or the level left.

Data set [15] concerns Hepatitis B virus. Put plainly: Antiviral activity against adenovirus AdH294-WT harboring wild-type HBV genotype D accession #V01460 infected in human HepG2 cells assessed as reduction in viral replicative intermediate DNA level at 120 nM incubated for 5 days by Southern blot analysis (reference value: 100%). It counts as functional. Set-up: scale not given: the % may be the effect or the level left. The note with it: time 5 day.

Data set [16] is described as follows: Toxicity in C57BL/6 male mouse assessed as effect on organ weight level at 60 mg/kg, po for 14 days. The format is organism-based. The note with it: in vivo, 336 h, time 14 day.

Structures are written as SMILES. The source made the active and inactive calls. The rule behind the calls is not given here.

On to `CC(C)CCOC(=O)C[C@H](NP(=O)(CO[C@H]1CO[C@@H](n2cnc3c(N)ncnc32)C1)Oc1ccccc1)C(=O)OCCC(C)C` (mixture of isomers), for which the result in data set [1] was Active. Moreover, the 50% effective concentration (EC50) in [2] was < 4 nM. Moreover, the Activity is 59.1% in data set [3]; 0.7% in data set [4]; “Non-Toxic” in [5]; “Non-Toxic” in data set [6]; 98.2% in [7]; “Non-Toxic” in data set [8]. The Activity entry in data set [9] is “Non-Toxic”; in data set [10], 12.9%; in data set [11] it was “Non-Toxic”; in data set [12], 11.7%; in data set [13], “Non-Toxic”; in data set [14], 22.4%. For the same molecule, the values for the Activity in data set [15] and in [16] were 7.5% and “Non-Toxic”, respectively.
